Measured values reported in PMC6764212 (ACS Central Science, 2019).
Read-outs that look alike come from different tables or passages of the source.

Legend:
GABAAR(α1/β3/γ2) [1] = target: T1, GABAAR(α1/β3/γ2) (Homo sapiens, UniProt P14867+P18507+P28472); experiment: Ligand detection / high-throughput screening by fluorescence change ratio; type: binding; details: for assignment of hit compound from the screening: third and fourth screening, LOPAC1280, 10 μM
GABAARs = details: cited from earlier work
GABAAR(α1/β3/γ2) [2] = target: T1, GABAAR(α1/β3/γ2); experiment: Dissociation constant of PAM at fixed 10 μM GABA; type: binding
GABAAR(α1/β3/γ2) [3] = target: T1, GABAAR(α1/β3/γ2); type: binding
GABAAR(α1/β3/γ2) [4] = target: T1, GABAAR(α1/β3/γ2); experiment: Whole-cell patch-clamp electrophysiology in GABAAR-transfected HEK293T cells; type: cell-based; details: for chloride currents in the absence of GABA at high concentrations: 100 μM for CGP-7930 and CGP-13501, 25 μM for vinpocetine, Retro-2 and YC-1

Row | Compound | fluorescence change (ΔF/F0) upon ligand addition in the absence of GABA (GABAAR(α1/β3/γ2) [1]) | fluorescence change (ΔF/F0) upon ligand addition in the presence of GABA (GABAAR(α1/β3/γ2) [1]) | assignment of hit compound from the screening (GABAAR(α1/β3/γ2) [1]) | Kd (GABAAR(α1/β3/γ2) [2]) [nM] | other results
1 | Cc1ccc(-c2nc3ccc(C)cn3c2CC(=O)N(C)C)cc1 [zolpidem] | negligible fluorescence change | pronounced fluorescent decrease |  |  | 
2 | CC1=C(C)C(=O)C(CCCCC#CCCCC#CCO)=C(C)C1=O [AA-861] |  |  | PAM candidates |  | 
3 | CC(C)c1cccc(C(C)C)c1O [propofol] | negligible fluorescence change | pronounced fluorescent decrease |  | 5600 | Kd (GABAARs; read-out: Kd of propofol previously reported using live cells): 1900 nM
4 | COc1ccc2c(c1OC)C(=O)O[C@@H]2[C@H]1c2cc3c(cc2CCN1C)OCO3 [hydrastine] |  |  | potential orthosteric ligands |  | 
5 | COc1ccc(-c2ccc(=N)n(CCCC(=O)O)n2)cc1 [gabazine] | significant decrease | significant decrease | potential orthosteric ligands |  | Kd (GABAAR(α1/β3/γ2) [3]): 214 nM; concentration at which the fluorescence decrease reached saturation (GABAAR(α1/β3/γ2) [3]; 100 nM Gzn-OG, CLSM image): approximately 10 μM
6 | picrotoxin | no effect on the fluorescence intensity | no effect on the fluorescence intensity |  |  | 
7 | CCOC(=O)C1=C[C@]2(CC)CCCN3CCc4c(n1c1ccccc41)[C@@H]32 [vinpocetine] |  |  | PAM candidates | 1400 | chloride currents in the absence of GABA at high concentrations (GABAAR(α1/β3/γ2) [4]; no GABA): increased the chloride currents; effect on GABA-induced chloride currents (GABAAR(α1/β3/γ2) [4]; [compound] = 3 μM, [GABA] = 30 μM, −60 mV): reversibly enhanced; direct activation of GABAARs at low concentrations (GABAAR(α1/β3/γ2) [4]; low concentrations (3 μM), no GABA): did not induce any direct activation of GABAARs
8 | CCOC(=O)c1cncn1[C@H](C)c1ccccc1 [etomidate] | negligible fluorescence change | pronounced fluorescent decrease |  |  | Kd (GABAARs; read-out: Kd of etomidate previously reported using live cells): 1800 nM
9 | CC(C)(CO)Cc1cc(C(C)(C)C)c(O)c(C(C)(C)C)c1 [CGP-7930, 2,6-Di-tert-butyl-4-(3-hydroxy-2,2-dimethyl-propyl)-phenol] |  |  | PAM candidates | 13100 | chloride currents in the absence of GABA at high concentrations (GABAAR(α1/β3/γ2) [4]; no GABA): increased the chloride currents
